Data on one compound can be found in article PMC12469831, “The Odorant-Binding Proteins AspiOBP1 and AspiOBP2 in Aleurocanthus spiniferus Are Involved in the Perception of Host Volatiles” (International Journal of Molecular Sciences, 2025).

Structures can show the parent of a compound that is named as a salt.

For the test, the target named is T1, AspiOBP2.
T1 construct: signal peptide removed; pET-30a(+) BamHI/EcoRI, E. coli BL21; His-tag kept; about 27 kDa predicted; clone primers encode mature start ETSTVDS and C-terminus PPPKP
Kind of test: fluorescent probe titration, Scatchard. The format is binding, Aleurocanthus spiniferus. The settings on record: 50 mmol/L Tris-HCl pH 7.4, 2 µmol/L protein, excitation 295 nm, His-tag kept.

Take `O=S(=O)(O)c1cccc2c(-c3ccc(Nc4ccccc4)c4c(S(=O)(=O)O)cccc34)ccc(Nc3ccccc3)c12` [bis-ANS, 4,4′-Dianilino-1,1′-binaphthyl-5,5′-disulfonic acid, dipotassium salt]: binding was characterised by a dissociation constant (Kd) of 2.26 ± 0.47 µM.
